Test results taken from ChEMBL document CHEMBL4177730, “Rational modification of semaxanib and sunitinib for developing a tumor growth inhibitor targeting ATP binding site of tyrosine kinase” (2018).
Calls of active or inactive are those of the source.

Tests used:
Assay type in all cases: functional, cell-based
[1] = tested on: NCI/ADR-RES; assay: Growth inhibition of human NCI-ADR-RES cells at 10 uM after 48 hrs by sulforhodamine B assay
[2] = tested on: HL-60(TB); assay: Growth inhibition of human HL-60(TB) cells at 10 uM after 48 hrs by sulforhodamine B assay
[3] = tested on: A549; assay: Growth inhibition of human A549/ATCC cells at 10 uM after 48 hrs by sulforhodamine B assay
[4] = tested on: K562; assay: Growth inhibition of human K562 cells at 10 uM after 48 hrs by sulforhodamine B assay
[5] = tested on: SK-MEL-28; assay: Growth inhibition of human SK-MEL-28 cells at 10 uM after 48 hrs by sulforhodamine B assay
[6] = tested on: CAKI-1; assay: Growth inhibition of human CAKI-1 cells at 10 uM after 48 hrs by sulforhodamine B assay
[7] = tested on: HCC 2998; assay: Growth inhibition of human HCC2998 cells at 10 uM after 48 hrs by sulforhodamine B assay
[8] = tested on: EKVX; assay: Growth inhibition of human EKVX cells at 10 uM after 48 hrs by sulforhodamine B assay
[9] = tested on: HOP-92; assay: Growth inhibition of human HOP92 cells at 10 uM after 48 hrs by sulforhodamine B assay
[10] = tested on: OVCAR-5; assay: Growth inhibition of human OVCAR5 cells at 10 uM after 48 hrs by sulforhodamine B assay
[11] = tested on: KM12; assay: Growth inhibition of human KM12 cells at 10 uM after 48 hrs by sulforhodamine B assay
[12] = tested on: UACC-62; assay: Growth inhibition of human UACC62 cells at 10 uM after 48 hrs by sulforhodamine B assay
[13] = tested on: LOX IMVI; assay: Growth inhibition of human LOXIMVI cells at 10 uM after 48 hrs by sulforhodamine B assay
[14] = tested on: BT-549; assay: Growth inhibition of human BT549 cells at 10 uM after 48 hrs by sulforhodamine B assay
[15] = tested on: NCI-H226; assay: Growth inhibition of human NCI-H226 cells at 10 uM after 48 hrs by sulforhodamine B assay
[16] = tested on: SNB-19; assay: Growth inhibition of human SNB19 cells at 10 uM after 48 hrs by sulforhodamine B assay
[17] = tested on: RPMI-8226; assay: Growth inhibition of human RPMI8226 cells at 10 uM after 48 hrs by sulforhodamine B assay
[18] = tested on: OVCAR-3; assay: Growth inhibition of human OVCAR3 cells at 10 uM after 48 hrs by sulforhodamine B assay
[19] = tested on: SF-295; assay: Growth inhibition of human SF295 cells at 10 uM after 48 hrs by sulforhodamine B assay
[20] = tested on: SNB-75; assay: Growth inhibition of human SNB75 cells at 10 uM after 48 hrs by sulforhodamine B assay
[21] = tested on: SN12C; assay: Growth inhibition of human SN12C cells at 10 uM after 48 hrs by sulforhodamine B assay
[22] = tested on: HCT-15; assay: Growth inhibition of human HCT15 cells at 10 uM after 48 hrs by sulforhodamine B assay
[23] = tested on: NCI-H322M; assay: Growth inhibition of human NCI-H322M cells at 10 uM after 48 hrs by sulforhodamine B assay
[24] = tested on: COLO 205; assay: Growth inhibition of human COLO205 cells at 10 uM after 48 hrs by sulforhodamine B assay
[25] = tested on: MDA-MB-435; assay: Growth inhibition of human MDA-MB-435 cells at 10 uM after 48 hrs by sulforhodamine B assay
[26] = tested on: MOLT-4; assay: Growth inhibition of human MOLT4 cells at 10 uM after 48 hrs by sulforhodamine B assay
[27] = tested on: ACHN; assay: Growth inhibition of human ACHN cells at 10 uM after 48 hrs by sulforhodamine B assay
[28] = tested on: DU-145; assay: Growth inhibition of human DU145 cells at 10 uM after 48 hrs by sulforhodamine B assay
[29] = tested on: MDA-MB-231; assay: Growth inhibition of human MDA-MB-231 cells at 10 uM after 48 hrs by sulforhodamine B assay
[30] = tested on: M14; assay: Growth inhibition of human M14 cells at 10 uM after 48 hrs by sulforhodamine B assay
[31] = tested on: OVCAR-4; assay: Growth inhibition of human OVCAR4 cells at 10 uM after 48 hrs by sulforhodamine B assay
[32] = tested on: CCRF-CEM; assay: Growth inhibition of human CCRF-CEM cells at 10 uM after 48 hrs by sulforhodamine B assay
[33] = tested on: SW-620; assay: Growth inhibition of human SW620 cells at 10 uM after 48 hrs by sulforhodamine B assay
[34] = tested on: MCF7; assay: Growth inhibition of human MCF7 cells at 10 uM after 48 hrs by sulforhodamine B assay
[35] = tested on: SR; assay: Growth inhibition of human SR cells at 10 uM after 48 hrs by sulforhodamine B assay
[36] = tested on: SK-MEL-5; assay: Growth inhibition of human SK-MEL-5 cells at 10 uM after 48 hrs by sulforhodamine B assay
[37] = tested on: UO-31; assay: Growth inhibition of human UO31 cells at 10 uM after 48 hrs by sulforhodamine B assay
[38] = tested on: A498; assay: Growth inhibition of human A498 cells at 10 uM after 48 hrs by sulforhodamine B assay
[39] = tested on: 786-0; assay: Growth inhibition of human 786-0 cells at 10 uM after 48 hrs by sulforhodamine B assay
[40] = tested on: NCI-H522; assay: Growth inhibition of human NCI-H522 cells at 10 uM after 48 hrs by sulforhodamine B assay
[41] = tested on: NCI-H23; assay: Growth inhibition of human NCI-H23 cells at 10 uM after 48 hrs by sulforhodamine B assay
[42] = tested on: T47D; assay: Growth inhibition of human T47D cells at 10 uM after 48 hrs by sulforhodamine B assay
[43] = tested on: HCT-116; assay: Growth inhibition of human HCT116 cells at 10 uM after 48 hrs by sulforhodamine B assay
[44] = tested on: TK-10; assay: Growth inhibition of human TK10 cells at 10 uM after 48 hrs by sulforhodamine B assay
[45] = tested on: IGROV-1; assay: Growth inhibition of human IGROV1 cells at 10 uM after 48 hrs by sulforhodamine B assay
[46] = tested on: HT-29; assay: Growth inhibition of human HT-29 cells at 10 uM after 48 hrs by sulforhodamine B assay
[47] = tested on: OVCAR-8; assay: Growth inhibition of human OVCAR8 cells at 10 uM after 48 hrs by sulforhodamine B assay
[48] = tested on: SK-MEL-2; assay: Growth inhibition of human SK-MEL-2 cells at 10 uM after 48 hrs by sulforhodamine B assay
[49] = tested on: RXF 393; assay: Growth inhibition of human RXF393 cells at 10 uM after 48 hrs by sulforhodamine B assay
[50] = tested on: U-251; assay: Growth inhibition of human U251 cells at 10 uM after 48 hrs by sulforhodamine B assay
[51] = tested on: Malme-3M; assay: Growth inhibition of human MALME-3M cells at 10 uM after 48 hrs by sulforhodamine B assay
[52] = tested on: SF-539; assay: Growth inhibition of human SF539 cells at 10 uM after 48 hrs by sulforhodamine B assay
[53] = tested on: PC-3; assay: Growth inhibition of human PC3 cells at 10 uM after 48 hrs by sulforhodamine B assay
[54] = tested on: MDA-MB-468; assay: Growth inhibition of human MDA-MB-468 cells at 10 uM after 48 hrs by sulforhodamine B assay
[55] = tested on: SF-268; assay: Growth inhibition of human SF268 cells at 10 uM after 48 hrs by sulforhodamine B assay
[56] = tested on: SK-OV-3; assay: Growth inhibition of human SKOV3 cells at 10 uM after 48 hrs by sulforhodamine B assay
[57] = tested on: HOP-62; assay: Growth inhibition of human HOP62 cells at 10 uM after 48 hrs by sulforhodamine B assay
[58] = tested on: NCI-H460; assay: Growth inhibition of human NCI-H460 cells at 10 uM after 48 hrs by sulforhodamine B assay
[59] = tested on: Hs-578T; assay: Growth inhibition of human Hs 578T cells at 10 uM after 48 hrs by sulforhodamine B assay

Measured: growth inhibition (GI)

O=C1/C(=C\c2cccn2Cc2ccc(F)cc2)c2ccccc2N1c1c(Cl)cccc1Cl
inactive: all assays above
